Among the data in patent US20250051327A1, “MALT-1 MODULATORS” (EXSCIENTIA AI LIMITED, priority 2020, published 2025) are IC50 values, retold here.

The test system of the assay is IL-2 secretion by human effector memory T cells (TEM). Put plainly: Effector memory T cells IL-2 release assay. In kind it is cell-based. As to conditions: T-cell; human CD4+ effector memory T cells, CD3/CD28 bead stimulation, 24 h; read-out: CD4TC IL2 IC50. As to the method:
Effector Memory T Cells IL-2 Release Assay
Test compound-mediated inhibition of NFκB signalling in T cells was assessed by quantification of the IL-2 secretion by human effector memory T cells (TEM) upon treatment and stimulation. Human TEM cells were isolated from buffy coats of healthy donors obtained from the French blood bank. First, peripheral blood mononuclear cells (PBMC) were purified from buffy coats diluted 1:1 with DPBS (Gibco, cat #14190-094) by Pancoll (PAN BIOTECH, cat #P04-60500) density gradient centrifugation at 400×g for 20 minutes. TEM cells were further enriched by negative immuno-magnetic cell sorting using a human CD4+ Effector Memory T Cell Isolation Kit (Miltenyi, cat #130-094-125) according to the manufacturer's instructions. Aliquots of 3×10E6 purified TEM cells were kept frozen in Cryo-SFM medium (PromoCell, cat #C-29912) in gas phase nitrogen until used. Cell purity was verified by flow cytometry analysis of 200 000 PFA-fixed cells previously labelled with monoclonal antibodies anti-CD4-PerCP-Cy5.5 (BD Pharmigen, cat #332772), anti-CD8-V500 (BD Biosciences, cat #561617), anti-CD14-Pacific Blue (Biolegend, cat #325616), anti-CD45 RA-FITC (Biolegend, cat #304106) and anti-CCR7-APC (in CD4+ Effector Memory T Cell Isolation Kit, Miltenyi, cat #130-094-125).
TEM cells were resuspended in complete RPMI medium composed of: RPMI 1640 (Gibco, cat #31870-025), 10% heat inactivated fetal bovine serum (Sigma, cat #F7524), 2 mM GlutaMAX (Gibco, cat #35050-038), 1 mM sodium pyruvate 100× (Gibco, cat #11360-039), 1% MEM non-essential amino acids solution (Gibco, cat #11140-035) and 100 U/mL penicillin, 100 μg/mL streptomycin (Sigma-Aldrich, cat #11074440001). 5,000 cells per well were plated onto flat clear bottom 384 well plates (Corning, cat #3770). 5,000 Dynabeads Human T-Activator CD3/CD28 (Gibco, cat #11132D) were added to each well for cell stimulation. Finally, 10 doses of test compound, originally prepared in DMSO by serial semi-log step dilution, were also added to cells in triplicate wells. Final DMSO concentration in wells was 0.1% in a total volume of 100 μL complete medium. Plates were incubated for 24 h at 37° C. in 5% CO2 atmosphere. After incubation, cell suspensions were centrifuged at 400×g and culture supernatants were recovered and stored at −80° C. Cell viability was assessed by flow cytometry after staining the cells with Fixable Viability Dye eFluor 780 (Invitrogen, cat #65-0865-14). IL-2 levels were determined in cell supernatants using an HTRF human IL-2 detection kit (Cisbio, cat #62HIL02PEH). IL-2 data at the different compound doses were fitted to a 4-parameter logistic curve to determine IC50 values, corresponding to the compound concentration leading to 50% reduction of the maximal IL-2 levels observed in each experiment. Viability data were analysed similarly to exclude cytotoxicity as a cause of IL-2 decrease (see Table 1).

What is called IC50 is the point on the concentration scale where inhibition reaches its midpoint.

`COc1ccc2ncc(Nc3ccc([C@H](N(C)C(=O)C4CCS(=O)(=O)CC4)C(F)(F)F)cc3)c(C3(OC)COC3)c2n1` [CPD0076414, N-methyl-1,1-dioxo-N-[(1S)-2,2,2-trifluoro-1-[4-[6-methoxy-4-(3-methoxyoxetan-3-yl)-1,5-naphthyridin-3-yllamino]phenyl]ethyl]thiane-4-carboxamide]: the IC50 is 0.267 µM.

On to `O=C(CC1CS(=O)(=O)C1)N[C@@H](c1ccc(N2CCCc3c2cnc2cc(Cl)nn32)cc1)C(F)(F)F` [CPD0073535], for which the IC50 stood at 2.07 µM.

For the compound `COC[C@@]1(C)CCN(c2ccc([C@H](N(C)C(=O)C3CCS(=O)(=O)CC3)C(F)(F)F)cc2)c2cnc3cc(Cl)nn3c21` [CPD0073139, N-[(1S)-1-[4-[(13rel-S)-4-chloro-13-(methoxymethyl)-13-methyl-2,3,7,10-tetrazatricyclo[7.4.0.0^2,6]trideca-1(9),3,5,7-tetraen-10-yl]phenyl]-2,2,2-trifluoro-ethyl]-N-methyl-1,1-dioxo-1λ^6-thiane-4-carboxamide], the IC50 worked out at 0.065 µM.

With `COc1ccc2ccc(Nc3ccc([C@H](N(C)C(=O)C4CCS(=O)(=O)CC4)C(F)(F)F)cc3)cc2n1` [CPD0019078, N-methyl-1,1-dioxo-N-[(1S)-2,2,2-trifluoro-1-{4-[(2-methoxyquinolin-7-yl)amino]phenyl}ethyl]-16-thiane-4-carboxamide], the IC50 came to 0.108 µM.

Turning to `COC[C@]1(C)CCN(c2ccc([C@H](N(C)C(=O)C3CCS(=O)(=O)CC3)C(F)(F)F)cc2)c2cnc3cc(Cl)nn3c21` [CPD0073140, N-[(1S)-1-[4-[(13rel-R)-4-chloro-13-(methoxymethyl)-13-methyl-2,3,7,10-tetrazatricyclo[7.4.0.0^2,6]trideca-1(9),3,5,7-tetraen-10-yl]phenyl]-2,2,2-trifluoro-ethyl]-N-methyl-1,1-dioxo-1λ^6-thiane-4-carboxamide], the IC50 worked out at 0.192 µM.

As to `COc1ccc2ncc(Nc3ccc([C@H](N(C)C(=O)C4CCS(=O)(=O)CC4)C(F)(F)F)cc3)c([C@H](C)OC)c2n1` (relative stereo) [CPD0019170, N-methyl-1,1-dioxo-N-[(1S)-2,2,2-trifluoro-1-[4-({6-methoxy-4-[(1 rel S)-1-methoxyethyl]-1,5-naphthyridin-3-yl}amino)phenyl]ethyl]-1λ^6-thiane-4-carboxamide], the IC50 stood at 0.02 µM.

For `COc1ccc2ncc(Nc3ccc([C@H](N(C)C(=O)[C@H]4CC[S@+]([O-])CC4)C(F)(F)F)cc3)c([C@H](C)OC)c2n1` (relative stereo) [CPD0072936, (1rel-r,4rel-r)-N-methyl-1-oxo-N-[(1S)-2,2,2-trifluoro-1-[4-({6-methoxy-4-[(1 rel-S)-1-methoxyethyl]-1,5-naphthyridin-3-yl}amino)phenyl]ethyl]-1λ^4-thiane-4-carboxamide], the IC50 is 0.017 µM.

As for `CN(C(=O)[C@H]1CCN(C(=O)CC#N)C1)[C@@H](c1ccc(N2CCCc3c2cnc2cc(Cl)nn32)cc1)C(F)(F)F` [CPD0073191, (3rel-S)-N-[(1S)-1-[4-(4-chloro-2,3,7,10-tetrazatricyclo[7.4.0.0^2,6]trideca-1(9),3,5,7-tetraen-10-yl)phenyl]-2,2,2-trifluoro-ethyl]-1-(2-cyanoacetyl)-N-methyl-pyrrolidine-3-carboxamide], the IC50 is 0.148 µM.

For the compound `C[C@H]1CCN(c2ccc([C@H](N(C)C(=O)[C@H]3CC[S@@](=N)(=O)CC3)C(F)(F)F)cc2)c2cnc3cc(F)nn3c21` (relative stereo) [CPD0074554, (1rel r, 4rel r)1-imino-N-methyl-1-oxo-N-[(1S)-2,2,2-trifluoro-1-[4-[(13 rel S)-4-fluoro-13-methyl-2,3,7,10-tetrazatricyclo[7.4.0.0^2,6]trideca-1(9),3,5,7-tetraen-10-yl]phenyl]ethyl]thiane-4-carboxamide], the IC50 was found to be 0.17 µM.

On to `COc1ccc2ncc(Nc3ccc([C@H](N(C)C(=O)[C@H]4CCC(=O)N4)C(F)(F)F)cc3)c([C@H](C)OC)c2n1` (relative stereo) [CPD0075581, (2 rel R)-N-methyl-5-oxo-N-[(1S)-2,2,2-trifluoro-1-[4-[6-methoxy-4-[(1 rel S)-1-methoxyethyl]-1,5-naphthyridin-3-yl]amino]phenyl]ethyl]pyrrolidine-2-carboxamide], for which the IC50 stood at 0.029 µM.

For the compound `CN(C(=O)C1CCS(=O)(=O)CC1)[C@@H](c1ccc(N2CCC3(CC3)c3c2cnc2cc(Cl)nn32)cc1)C(F)(F)F` [CPD0019590, N-[(1S)-1-(4-{4′-chloro-2′,3′,7′, 10′-tetraazaspiro[cyclopropane-1,13′-tricyclo[7.4.0.0^2,6]tridecane]-1′(9′),3′,5′,7′-tetraen-10′-yl}phenyl)-2,2,2-trifluoroethyl]-N-methyl-1,1-dioxo-1λ^6-thiane-4-carboxamide], the IC50 was 0.037 µM.

Turning to `CN(C(=O)[C@H]1CS(=O)(=O)CC12COC2)[C@@H](c1ccc(N2CCCc3c2cnc2cc(Cl)nn32)cc1)C(F)(F)F` [CPD0073975, (8rel-S)-N-[(1S)-1-(4-{4-chloro-2,3,7,10-tetraazatricyclo[7.4.0.0^2,6]trideca-1(9),3,5,7-tetraen-10-yl}phenyl)-2,2,2-trifluoroethyl]-N-methyl-6,6-dioxo-2-oxa-6λ^6-thiaspiro[3.4]octane-8-carboxamide], the IC50 was found to be 0.341 µM.

For `CN(C(=O)C1CCS(=O)(=O)CC1)[C@@H](c1ccc(N2CC[C@@]3(CCOC3)c3c2cnc2cc(Cl)nn32)cc1)C(F)(F)F` [CPD0073762, N-[(1S)-1-[4-[(13rel-R)-4-chlorospiro[2,3,7,10-tetrazatricyclo[7.4.0.0^2,6]trideca-1(9),3,5,7-tetraene-13,3′-tetrahydrofuran]-10-yl]phenyl]-2,2,2-trifluoro-ethyl]-N-methyl-1,1-dioxo-1λ^6-thiane-4-carboxamide], the IC50 worked out at 0.104 µM.

For `CN(C(=O)[C@@H]1CCN(C(=O)CC#N)C1)[C@@H](c1ccc(N2CCCc3c2cnc2cc(Cl)nn32)cc1)C(F)(F)F` [CPD0073190, (3rel-R)-N-[(1S)-1-[4-(4-chloro-2,3,7,10-tetrazatricyclo[7.4.0.0^2,6]trideca-1(9),3,5,7-tetraen-10-yl)phenyl]-2,2,2-trifluoro-ethyl]-1-(2-cyanoacetyl)-N-methyl-pyrrolidine-3-carboxamide], the IC50 worked out at 0.239 µM.

As for `COc1ccc2ncc(Nc3ccc([C@H](N(C)C(=O)C4CCS(=O)(=O)CC4)C(F)(F)F)cn3)c([C@@H](C)OC)c2n1` (relative stereo) [CPD0019006, N-methyl-1,1-dioxo-N-[(1S)-2,2,2-trifluoro-1-[6-({6-methoxy-4-[(1 rel S)-1-methoxyethyl]-1,5-naphthyridin-3-yl}amino)pyridin-3-yl]ethyl]-1λ^6-thiane-4-carboxamide], the IC50 was 0.18 µM.

With `CN(C(=O)[C@H]1C[C@@H]([S@@+](C)(=N)[O-])C1)[C@@H](c1ccc(N2CCCc3c2cnc2cc(Cl)nn32)cc1)C(F)(F)F` [CPD0073223, (1R,3s)-N-[(1S)-1-(4-{4-chloro-2,3,7,10-tetraazatricyclo[7.4.0.0^2,6]trideca-1(9),3,5,7-tetraen-10-yl}phenyl)-2,2,2-trifluoroethyl]-3-[(S)-imino(methyl)oxo-λ^6-sulfanyl]-N-methylcyclobutane-1-carboxamide], the IC50 was determined as 0.172 µM.

Regarding `COc1ccc2ncc(Nc3ccc([C@H](N(C)C(=O)[C@@H]4CCC(=O)N4)C(F)(F)F)cc3)c([C@H](C)OC)c2n1` (relative stereo) [CPD0075580, (2 rel S)-N-methyl-5-oxo-N-[(1S)-2,2,2-trifluoro-1-[4-[[6-methoxy-4-[(1 rel S)-1-methoxyethyl]-1,5-naphthyridin-3-yl]amino]phenyl]ethyl]pyrrolidine-2-carboxamide], the IC50 was 0.035 µM.

With `CN(C(=O)C1CCS(=O)(=O)CC1)[C@@H](c1ccc(N2CC[C@]3(CCOC3)c3c2cnc2cc(Cl)nn32)cc1)C(F)(F)F` [CPD0073763, N-[(1S)-1-[4-[(13rel-S)-4-chlorospiro[2,3,7,10-tetrazatricyclo[7.4.0.0^2,6]trideca-1(9),3,5,7-tetraene-13,3′-tetrahydrofuran]-10-yl]phenyl]-2,2,2-trifluoro-ethyl]-N-methyl-1,1-dioxo-1λ^6-thiane-4-carboxamide], the IC50 is 0.109 µM.
